Measured values as given in PMC11078746 (Nature, 2024).

What was measured:
RecQ5 = molecular target: T1, RecQ5 (Homo sapiens, UniProt O94762); test: RecQ selectivity ATPase assay; format: biochemical
T1 construct: Human RecQ5-D1D2 (UniProt: O94762, Asp11–Trp453); His tag (N); made in house; host or cells: E. coli BL21(DE3), by the 'analogous procedure'
Protocol: (§1) DNA sequence allowing expression of human BLM-D1D2RH (UniProt P54132: Lys640–Gly1298) fused at the amino-terminal end to His tag followed by TEV-cleavage site, was inserted into a pET-derived vector. Protein expression was performed in BL21(DE3) cells after IPTG induction. Cells were collected and resuspended in lysis buffer (50 mM NaH2PO4, 300 mM NaCl, 1 mM TCEP, 20 mM imidazole, pH 8.0) supplemented with 2 mM MgCl2, benzonase and 0.5 mM AEBSF. Cells were lysed with an Emulsiflex C3 homogenizer. After ultracentrifugation, the lysate was loaded onto a HisTrap HP column. Bound protein was eluted with an imidazole gradient in lysis buffer. The amino-terminal tag was cleaved with TEV protease. Cleaved protein was loaded on Resource S ion-exchange column and eluted with a NaCl gradient in IEX buffer (20 mM Tris, 1 mM TCEP, 10% glycerol, 20 mM NaCl, pH 7.4). As a final step, BLM-D1D2RH protein was concentrated and loaded onto the Superdex 75 gel-filtration column pre-equilibrated with SEC buffer (50 mM Tris, 150 mM NaCl, 10% glycerol, pH 7.4). Eluted target protein was concentrated and frozen on dry ice. An analogous procedure was used for the expression and purification of human RecQ1-D1D2 (UniProt: P46063, Asp62–Ser482) and Human RecQ5-D1D2 (UniProt: O94762, Asp11–Trp453) proteins.
(§2) We used an ADP-Glo assay kit (Promega) to monitor ATP hydrolysis. A 45-oligonucleotide with the following sequence: […], referred to as FLAP26, as described previously[45] was purchased from IDT (Integrated DNA Technologies) and used as a DNA substrate. […] The reaction was started by addition of 2.5 μl of ssDNA substrate at 0.4 nM and incubated for 30 min at room temperature. The reaction was stopped with the addition of 5 μl of the first ADP-Glo reagent and incubated for 1 h to remove the excess amount of ATP. Then, 10 μl of ATP detection reagent was added and incubated for an additional hour before reading. The luminescence output was recorded using the Pherastar reader, with a 5 min delay before reading. Each concentration of compounds was tested in duplicates in the assay plate. The compound potency (IC50 value) was determined using custom software (Novartis Helios software application) with a four-parameter sigmoid Hill-curve model. After normalization of activity values for the wells to percentage inhibition (percentage inhibition = [(high control activity − sample activity)/(high control activity − low control activity)] × 100), IC50 fitting was performed from the duplicate determinations present on each plate.
(§3) The same ATPase assay protocol was used with the three other RecQ protein constructs to assess the selectivity over WRN. Time-course experiments were performed to determine the best enzymatic assay conditions for each RecQ protein. The experiments were run as described above with 10 nM RecQ1 protein construct with 10 nM ssDNA substrate, 2 nM BLM protein construct with 0.2 nM ssDNA substrate and 0.5 nM RecQ5 protein construct with 2 nM ssDNA substrate, respectively.

BLM = molecular target: T2, BLM (Homo sapiens, UniProt P54132); test: RecQ selectivity ATPase assay; format: biochemical
T2 construct: human BLM-D1D2RH (UniProt P54132: Lys640–Gly1298); His tag (N, cleaved yes); made in house; host or cells: E. coli BL21(DE3)
T2 sequence (P54132 640-1298): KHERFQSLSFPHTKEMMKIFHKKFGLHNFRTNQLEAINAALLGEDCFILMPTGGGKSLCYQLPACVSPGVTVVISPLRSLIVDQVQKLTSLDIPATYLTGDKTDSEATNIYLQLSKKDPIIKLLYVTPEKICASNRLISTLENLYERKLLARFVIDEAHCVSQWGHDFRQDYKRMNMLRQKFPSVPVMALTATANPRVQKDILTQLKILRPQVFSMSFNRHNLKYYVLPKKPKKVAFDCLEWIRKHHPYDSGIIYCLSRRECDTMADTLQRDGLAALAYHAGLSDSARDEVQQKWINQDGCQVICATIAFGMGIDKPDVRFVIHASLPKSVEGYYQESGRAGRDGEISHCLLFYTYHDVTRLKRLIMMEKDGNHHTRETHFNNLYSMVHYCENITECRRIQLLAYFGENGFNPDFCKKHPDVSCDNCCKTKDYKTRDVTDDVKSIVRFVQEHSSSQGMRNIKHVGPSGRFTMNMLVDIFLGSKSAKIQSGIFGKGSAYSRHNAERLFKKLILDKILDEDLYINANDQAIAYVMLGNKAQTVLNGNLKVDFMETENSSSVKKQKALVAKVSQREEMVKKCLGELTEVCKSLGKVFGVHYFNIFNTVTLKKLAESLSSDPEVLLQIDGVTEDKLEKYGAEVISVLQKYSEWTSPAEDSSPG
Protocol: as §1, §2, §3

RecQ1 = molecular target: T3, RecQ1 (Homo sapiens, UniProt P46063); test: RecQ selectivity ATPase assay; format: biochemical
T3 construct: human RecQ1-D1D2 (UniProt: P46063, Asp62–Ser482); His tag (N); made in house; host or cells: E. coli BL21(DE3), by the 'analogous procedure'
T3 sequence (P46063 62-482): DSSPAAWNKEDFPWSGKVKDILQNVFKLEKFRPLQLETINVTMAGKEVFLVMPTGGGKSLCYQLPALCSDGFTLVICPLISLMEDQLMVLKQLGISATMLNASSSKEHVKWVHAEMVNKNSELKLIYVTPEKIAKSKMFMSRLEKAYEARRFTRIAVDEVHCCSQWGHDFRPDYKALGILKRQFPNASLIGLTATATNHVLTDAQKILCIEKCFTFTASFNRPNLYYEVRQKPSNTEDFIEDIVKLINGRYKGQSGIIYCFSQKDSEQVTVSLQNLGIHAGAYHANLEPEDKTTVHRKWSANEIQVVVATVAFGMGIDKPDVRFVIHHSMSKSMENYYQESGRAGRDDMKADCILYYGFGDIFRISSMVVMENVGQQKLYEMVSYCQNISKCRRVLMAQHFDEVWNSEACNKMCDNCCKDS
Protocol: as §1, §2, §3

LOVO = test: 4 day proliferation assay (CellTiter-Glo); details: Homo sapiens, 96 h, read-out: 4 day assay GI50

T1 sequence (O94762 11-453): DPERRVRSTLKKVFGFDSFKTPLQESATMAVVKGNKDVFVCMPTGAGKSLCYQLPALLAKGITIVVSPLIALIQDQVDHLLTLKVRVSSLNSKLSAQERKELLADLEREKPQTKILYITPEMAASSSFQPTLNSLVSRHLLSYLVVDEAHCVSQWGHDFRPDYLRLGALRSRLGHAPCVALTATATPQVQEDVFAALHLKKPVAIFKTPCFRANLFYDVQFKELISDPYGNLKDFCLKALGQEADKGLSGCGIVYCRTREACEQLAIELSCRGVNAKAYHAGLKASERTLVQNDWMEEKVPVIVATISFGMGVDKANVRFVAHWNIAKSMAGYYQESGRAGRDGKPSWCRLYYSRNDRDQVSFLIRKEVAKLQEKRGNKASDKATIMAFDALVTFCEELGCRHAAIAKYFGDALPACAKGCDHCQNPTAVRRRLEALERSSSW

Which results are given for `CCc1c(N2CCN(C(=O)c3ncnc(C)c3O)CC2)c(=O)n2nc(C3=CCOCC3)nc2n1CC(=O)Nc1ccc(C(F)(F)F)cc1Cl` [HRO761]?
IC50 (RecQ5): > 100 µM; IC50 (BLM): > 100 µM; IC50 (RecQ1): > 100 µM; GI50 (LOVO): 1240 nM
